Results taken from US12201679B2, “Epitope-targeted peptide immunostimulants” (priority 2019, dated 2025).
Read-outs that look alike come from different tables or passages of the source. Bridge positions count the residues as written; N and C are the ends. Square brackets hold non-standard residues; d marks the D form. Triazole bridges read from a SMILES are 1,4-linked. Peptide text beside a SMILES is read from it. * marks the point of attachment. Biotin = O=C1N[C@H]2[C@H](CS[C@H]2CCCCC(=O)*)N1; PEG10 = NCCOCCOCCOCCOCCOCCOCCOCCOCCOCCOCCC(=O)O; Lys(N3) = [N-]=[N+]=NCCCC[C@H](N)C(=O)O; Orn(N3) = [N-]=[N+]=NCCC[C@H](N)C(=O)O; Phe(4-F) = N[C@@H](Cc1ccc(F)cc1)C(=O)O; PEG5 = NCCOCCOCCOCCOCCOCCC(=O)O; Pra = C#CC[C@H](N)C(=O)O

Columns and labels:
[1] = Isocratic point, elution from C18 prep-scale column; format: physicochemical; conditions: elution from C18 column
Experimental: PCC compounds were purified on a Waters Autopurification system, which isolated compounds based on MS peaks corresponding to protonated [M+1H]^+ and [M+2H]^2+, and/or sodium adducts [M+Na]^+ and [M+2Na]^2+. The isocratic points of PCCs were determined based on the elution of the compound from a C18 prep-scale column. Synthetic epitopes were either purified on the Waters Autopurification System, or by semi-preparative HPLC and then using matrix-assisted laser desorption/ionization mass spectroscopy to identify fractions with the desired m/z ratio. The resulting peptides were lyophilized, the yield determined by mass difference or UV-visible absorbance, and resuspended at a concentration of up to 10 mM peptide in DMSO. Peptides were stored at −80° C. before thawing for each use.

[2] = target: full-length recombinant MrkA protein (Klebsiella pneumoniae, UniProt P12267); format: binding
Sequence of full-length recombinant MrkA protein (P12267 23-202): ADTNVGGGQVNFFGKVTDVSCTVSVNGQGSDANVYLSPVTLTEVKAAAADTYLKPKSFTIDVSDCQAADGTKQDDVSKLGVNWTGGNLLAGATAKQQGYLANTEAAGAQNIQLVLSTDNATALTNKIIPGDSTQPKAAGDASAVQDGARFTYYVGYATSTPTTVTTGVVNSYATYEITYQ
Text: HPraGly is present before X1 in each peptide and Az4 follows X5 in each peptide.

Row | SMILES | Isocratic point (%) [1] [%] | Relative affinity (ratio of ELISA signal versus cy(LLFFF)) ([2]; ELISA 3, [MrkA] 50 nM) | Relative affinity (ratio of ELISA signal versus cy(LLFFF)) ([2]; ELISA 6, [MrkA] 25 nM) | further results
1 | CC(C)C[C@@H]1NC(=O)[C@@H](NC(=O)CCOCCOCCOCCOCCOCCOCCOCCOCCOCCOCCNC(=O)CCCC[C@@H]2SC[C@@H]3NC(=O)N[C@@H]32)Cc2cn(nn2)CCC[C@@H](C(N)=O)NC(=O)[C@H](Cc2ccccc2)NC(=O)[C@H](Cc2ccccc2)NC(=O)[C@H](Cc2ccccc2)NC(=O)[C@H](CC(C)C)NC1=O [compound 10] ({Biotin-PEG10}-[Pra]LLFFF[Orn(N3)]-NH2; triazole 1-7) | 76.89 | 0.89 |  | 
2 | CC(C)C[C@@H]1NC(=O)[C@H](Cc2c[nH]cn2)NC(=O)[C@@H](NC(=O)CCOCCOCCOCCOCCOCCOCCOCCOCCOCCOCCNC(=O)CCCC[C@@H]2SC[C@@H]3NC(=O)N[C@@H]32)Cc2cn(nn2)CCCC[C@@H](C(N)=O)NC(=O)[C@H](Cc2ccccc2)NC(=O)[C@H](Cc2ccccc2)NC(=O)[C@H](Cc2ccccc2)NC1=O [compound 19] ({Biotin-PEG10}-[Pra]HLFFF[Lys(N3)]-NH2; triazole 1-7) | 47.52 |  | 0.81 | 
3 | CC(C)C[C@@H]1NC(=O)[C@@H](NC(=O)CCOCCOCCOCCOCCOCCOCCOCCOCCOCCOCCNC(=O)[C@H](CCCNC(=N)N)NC(=O)[C@H](CCCNC(=N)N)NC(=O)[C@H](CCCNC(=N)N)NC(=O)CCOCCOCCOCCOCCOCCOCCOCCOCCOCCOCCNC(=O)CCCC[C@@H]2SC[C@@H]3NC(=O)N[C@@H]32)Cc2cn(nn2)CCCC[C@@H](C(N)=O)NC(=O)[C@H](Cc2ccccc2)NC(=O)[C@H](Cc2ccccc2)NC(=O)[C@H](Cc2ccccc2)NC(=O)[C@H](CC(C)C)NC1=O [compound 16] ({Biotin-PEG10}-RRR[PEG10][Pra]LLFFF[Lys(N3)]-NH2; triazole 5-11) | 45.02 |  |  | Relative affinity (ratio of ELISA signal versus cy(LLFFF)) ([2]; ELISA 5, [MrkA] 25 nM): 0.90
4 | C[C@@H]1NC(=O)[C@H](C)NC(=O)[C@@H](NC(=O)CCOCCOCCOCCOCCOCCOCCOCCOCCOCCOCCNC(=O)CCCC[C@@H]2SC[C@@H]3NC(=O)N[C@@H]32)Cc2cn(nn2)CCCC[C@@H](C(N)=O)NC(=O)[C@H](Cc2ccccc2)NC(=O)[C@H](Cc2ccccc2)NC(=O)[C@H](Cc2ccccc2)NC1=O [compound 7] ({Biotin-PEG10}-[Pra]AAFFF[Lys(N3)]-NH2; triazole 1-7) | 54.65 | 0.15 |  | 
5 | CC(C)C[C@@H]1NC(=O)[C@H](C)NC(=O)[C@@H](NC(=O)CCOCCOCCOCCOCCOCCOCCOCCOCCOCCOCCNC(=O)CCCC[C@@H]2SC[C@@H]3NC(=O)N[C@@H]32)Cc2cn(nn2)CCCC[C@@H](C(N)=O)NC(=O)[C@H](Cc2ccccc2)NC(=O)[C@H](Cc2ccccc2)NC(=O)[C@H](Cc2ccccc2)NC1=O [compound 2] ({Biotin-PEG10}-[Pra]ALFFF[Lys(N3)]-NH2; triazole 1-7) | 65.55 |  |  | Relative affinity (ratio of ELISA signal versus cy(LLFFF)) ([2]; ELISA 2, [MrkA] 25 nM): 0.53
6 | CC(C)C[C@@H]1NC(=O)[C@@H](NC(=O)CCOCCOCCOCCOCCOCCOCCOCCOCCOCCOCCNC(=O)CCCC[C@@H]2SC[C@@H]3NC(=O)N[C@@H]32)Cc2cn(nn2)CCCC[C@@H](C(N)=O)NC(=O)[C@H](Cc2ccccc2)NC(=O)[C@H](Cc2ccccc2)NC(=O)[C@H](CC(C)C)NC1=O [compound 21] ({Biotin-PEG10}-[Pra]LLFF[Lys(N3)]-NH2; triazole 1-6) | 64.99 |  | 0.14 | 
7 | CC(C)C[C@@H]1NC(=O)[C@@H](NC(=O)CCOCCOCCOCCOCCOCCOCCOCCOCCOCCOCCNC(=O)CCCC[C@@H]2SC[C@@H]3NC(=O)N[C@@H]32)Cc2cn(nn2)CCCC[C@@H](C(N)=O)NC(=O)[C@H](Cc2ccccc2)NC(=O)[C@H](Cc2ccccc2)NC(=O)[C@H](Cc2ccccc2)NC1=O [compound 8] ({Biotin-PEG10}-[Pra]LFFF[Lys(N3)]-NH2; triazole 1-6) | 61.84 | 0.46 |  | 
8 | CC(C)C[C@@H]1NC(=O)[C@@H](NC(=O)CCOCCOCCOCCOCCOCCOCCOCCOCCOCCOCCNC(=O)CCCC[C@@H]2SC[C@@H]3NC(=O)N[C@@H]32)Cc2cn(nn2)CCCC[C@@H](C(N)=O)NC(=O)[C@H](Cc2ccc(F)cc2)NC(=O)[C@H](Cc2ccccc2)NC(=O)[C@H](Cc2ccccc2)NC(=O)[C@H](CC(C)C)NC1=O [compound 11] ({Biotin-PEG10}-[Pra]LLFF[Phe(4-F)][Lys(N3)]-NH2; triazole 1-7) | 75.53 | 0.88 |  | 
9 | CC(C)C[C@@H]1NC(=O)[C@H](CC(=O)O)NC(=O)[C@@H](NC(=O)CCOCCOCCOCCOCCOCCOCCOCCOCCOCCOCCNC(=O)CCCC[C@@H]2SC[C@@H]3NC(=O)N[C@@H]32)Cc2cn(nn2)CCCC[C@@H](C(N)=O)NC(=O)[C@H](Cc2ccccc2)NC(=O)[C@H](Cc2ccccc2)NC(=O)[C@H](Cc2ccccc2)NC1=O [compound 20] ({Biotin-PEG10}-[Pra]DLFFF[Lys(N3)]-NH2; triazole 1-7) | 66.33 |  | 0.21 | 
10 | C[C@@H](O)[C@@H]1NC(=O)[C@@H](NC(=O)CCOCCOCCOCCOCCOCCNC(=O)CCCC[C@@H]2SC[C@@H]3NC(=O)N[C@@H]32)Cc2cn(nn2)CCCC[C@@H](C(N)=O)NC(=O)[C@H](Cc2ccccc2)NC(=O)[C@H](Cc2ccccc2)NC(=O)[C@H](Cc2ccccc2)NC(=O)[C@H]([C@@H](C)O)NC1=O [compound 13] ({Biotin-PEG5}-[Pra]TTFFF[Lys(N3)]-NH2; triazole 1-7) | 53.40 |  |  | Relative affinity (ratio of ELISA signal versus cy(LLFFF)) ([2]; ELISA 4, [MrkA] 100 nM): 0.04
